# pIC50: −log10 of the molar value.
# How the values were obtained:
# 17,20-lyase (CYP17A1) = target: T1, 17,20-lyase (CYP17A1) (Homo sapiens, UniProt P05093); conditions: cited from earlier work
# T1 sequence (P05093 1-508): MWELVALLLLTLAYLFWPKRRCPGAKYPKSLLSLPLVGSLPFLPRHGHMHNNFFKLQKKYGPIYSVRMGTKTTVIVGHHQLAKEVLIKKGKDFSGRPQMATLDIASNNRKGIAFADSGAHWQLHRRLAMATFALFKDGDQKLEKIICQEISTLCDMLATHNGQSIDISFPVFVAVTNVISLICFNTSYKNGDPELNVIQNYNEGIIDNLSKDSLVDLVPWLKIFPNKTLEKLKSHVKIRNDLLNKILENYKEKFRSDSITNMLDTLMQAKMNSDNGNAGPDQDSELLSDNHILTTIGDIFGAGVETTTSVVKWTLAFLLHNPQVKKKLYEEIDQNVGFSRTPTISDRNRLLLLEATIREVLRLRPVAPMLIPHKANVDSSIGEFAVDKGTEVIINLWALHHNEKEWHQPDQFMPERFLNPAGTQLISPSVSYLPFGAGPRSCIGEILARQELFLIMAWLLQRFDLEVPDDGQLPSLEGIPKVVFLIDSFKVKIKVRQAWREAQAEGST
# [1] = test system: circulating androgens (testosterone, DHT, DHEA, androstenedione); conditions: added to castration, relative to castration alone; cited from earlier work
# [2] = Plasma concentrations of abiraterone acetate in previous studies; format: in vivo
# mCRPC = conditions: cited from earlier work
smiles,measurement,setting,value
C[C@]12CC[C@H](O)CC1=CC[C@@H]1[C@@H]2CC[C@]2(C)C(c3cccnc3)=CC[C@@H]12 [Abiraterone],pIC50,"17,20-lyase (CYP17A1)",7.82
"CC(=O)O[C@H]1CC[C@@]2(C)C(=CC[C@@H]3[C@@H]2CC[C@]2(C)C(c4cccnc4)=CC[C@@H]32)C1 [abiraterone acetate, Abiraterone acetate]",reduction of DHEA levels,[1],97-98%
same,reduction of DHT levels,[1],85%
same,reduction of androstenedione levels,[1],77-78%
same,plasma concentrations of abiraterone acetate,[2],below the lower limit of quantitation
O=C(c1cc(Cc2n[nH]c(=O)c3ccccc23)ccc1F)N1CCN(C(=O)C2CC2)CC1 [olaparib],biomarker-negative patient tumors with a response,mCRPC; 2 of 33,6%
same,responders who were biomarker-positive for anomalies in DNA-repair genes,mCRPC; 14 of the 16 patients with a response,88%
same,patients with ATM aberrations who had a response,"mCRPC; human, in vivo",4 of 5
same,patients with BRCA-2 loss who had a response,"mCRPC; human, in vivo",all 7 patients
